Measurements taken from US20240138411A1, “METHOD OF […] OF SUGARCANE” (CORTEVA AGRISCIENCE LLC, priority 2021, published 2024).

Test system: sugarcane
Test: Sugarcane flowering inhibition field trials, floral induction rated on UFSCar scale
Assay type: in vivo
Protocol: In order to explore the activity of florpyrauxifen as flowering inhibitor in sugarcane, field studies were carried out. Florpyrauxifen-benzyl was tested at rates from 2 to 20 grams active ingredient per hectare (g ai/ha) and compared to Ethrel® 720 (Bayer), the standard treatment. The flowering inhibition effect was assessed by checking the floral induction in sugarcane through the percentage scale recommended by UFSCar (Federal University of Sao Carlos, Sao Paulo, Brazil).
Four trials were carried out in sugarcane where florpyrauxifen-benzyl (Rinskor®), applied at a rate of 2 to 20 g ai/ha, was compared to ethephon (Ethrel® 720) applied at a rate of 475 g ai/ha. Control plots of untreated sugarcane were also evaluated. Rinskor® and Ethrel® 720 were diluted in water and a single application for each study (backpack sprayer) was performed delivering 50 L of spray solution per ha at the reproductive stage of sugarcane and at a maximum 150 days before harvest. The activity of florpyrauxifen-benzyl as a flowering inhibitor was measured via assessments (Scale of flowering inhibition—see chart 1) performed at 0, 14, 30, 45, 60, 75, 90, 120, 150 days after application, or up to harvest time. The assessments were measured in sugarcane stems, rating the flowering induction according to the UFSCar scale shown below. Significance of treatment effect was evaluated with F-approximate test (α=0.1) and least square means from different treatments were compared with Tukey's test.

COc1c(Cl)ccc(-c2nc(C(=O)OCc3ccccc3)c(Cl)c(N)c2F)c1F [Rinskor, florpyrauxifen-benzyl]
% Referring to Scale (Table 1, 75 DAA, 2 g ai/ha): 13.5% | Frequency 1/1 (0%) (Table 1, 75 DAA, 2 g ai/ha): 12.5% | Frequency 2/1 (15%) (Table 1, 75 DAA, 2 g ai/ha): 85.0% | Frequency 3/1 (30%) (Table 1, 75 DAA, 2 g ai/ha): 2.5% | Frequency 4/1 (50%) (Table 1, 75 DAA, 2 g ai/ha): 0.0% | Frequency 4/2 (80%) (Table 1, 75 DAA, 2 g ai/ha): 0.0% | Frequency 4/3 (90%) (Table 1, 75 DAA, 2 g ai/ha): 0.0% | Frequency 4/4 (100%) (Table 1, 75 DAA, 2 g ai/ha): 0.0% | % Referring to Scale (Table 1, 75 DAA, 5 g ai/ha): 14.6% | Frequency 1/1 (0%) (Table 1, 75 DAA, 5 g ai/ha): 7.5% | Frequency 2/1 (15%) (Table 1, 75 DAA, 5 g ai/ha): 87.5% | Frequency 3/1 (30%) (Table 1, 75 DAA, 5 g ai/ha): 5.0% | Frequency 4/1 (50%) (Table 1, 75 DAA, 5 g ai/ha): 0.0% | Frequency 4/2 (80%) (Table 1, 75 DAA, 5 g ai/ha): 0.0% | Frequency 4/3 (90%) (Table 1, 75 DAA, 5 g ai/ha): 0.0% | Frequency 4/4 (100%) (Table 1, 75 DAA, 5 g ai/ha): 0.0% | % Referring to Scale (Table 1, 75 DAA, 10 g ai/ha): 11.3% | Frequency 1/1 (0%) (Table 1, 75 DAA, 10 g ai/ha): 25.0% | Frequency 2/1 (15%) (Table 1, 75 DAA, 10 g ai/ha): 75.0% | Frequency 3/1 (30%) (Table 1, 75 DAA, 10 g ai/ha): 0.0% | Frequency 4/1 (50%) (Table 1, 75 DAA, 10 g ai/ha): 0.0% | Frequency 4/2 (80%) (Table 1, 75 DAA, 10 g ai/ha): 0.0% | Frequency 4/3 (90%) (Table 1, 75 DAA, 10 g ai/ha): 0.0% | Frequency 4/4 (100%) (Table 1, 75 DAA, 10 g ai/ha): 0.0% | % Referring to Scale (Table 1, 75 DAA, 15 g ai/ha): 10.1% | Frequency 1/1 (0%) (Table 1, 75 DAA, 15 g ai/ha): 32.5% | Frequency 2/1 (15%) (Table 1, 75 DAA, 15 g ai/ha): 67.5% | Frequency 3/1 (30%) (Table 1, 75 DAA, 15 g ai/ha): 0.0% | Frequency 4/1 (50%) (Table 1, 75 DAA, 15 g ai/ha): 0.0% | Frequency 4/2 (80%) (Table 1, 75 DAA, 15 g ai/ha): 0.0% | Frequency 4/3 (90%) (Table 1, 75 DAA, 15 g ai/ha): 0.0% | Frequency 4/4 (100%) (Table 1, 75 DAA, 15 g ai/ha): 0.0% | % Referring to Scale (Table 1, 75 DAA, 20 g ai/ha): 10.5% | Frequency 1/1 (0%) (Table 1, 75 DAA, 20 g ai/ha): 30.0% | Frequency 2/1 (15%) (Table 1, 75 DAA, 20 g ai/ha): 70.0% | Frequency 3/1 (30%) (Table 1, 75 DAA, 20 g ai/ha): 0.0% | Frequency 4/1 (50%) (Table 1, 75 DAA, 20 g ai/ha): 0.0% | Frequency 4/2 (80%) (Table 1, 75 DAA, 20 g ai/ha): 0.0% | Frequency 4/3 (90%) (Table 1, 75 DAA, 20 g ai/ha): 0.0% | Frequency 4/4 (100%) (Table 1, 75 DAA, 20 g ai/ha): 0.0% | % Referring to Scale (Table 1, 90 DAA, 2 g ai/ha): 13.1% | Frequency 1/1 (0%) (Table 1, 90 DAA, 2 g ai/ha): 12.5% | Frequency 2/1 (15%) (Table 1, 90 DAA, 2 g ai/ha): 87.5% | Frequency 3/1 (30%) (Table 1, 90 DAA, 2 g ai/ha): 0.0% | Frequency 4/1 (50%) (Table 1, 90 DAA, 2 g ai/ha): 0.0% | Frequency 4/2 (80%) (Table 1, 90 DAA, 2 g ai/ha): 0.0% | Frequency 4/3 (90%) (Table 1, 90 DAA, 2 g ai/ha): 0.0% | Frequency 4/4 (100%) (Table 1, 90 DAA, 2 g ai/ha): 0.0% | % Referring to Scale (Table 1, 90 DAA, 5 g ai/ha): 11.3% | Frequency 1/1 (0%) (Table 1, 90 DAA, 5 g ai/ha): 25.0% | Frequency 2/1 (15%) (Table 1, 90 DAA, 5 g ai/ha): 75.0% | Frequency 3/1 (30%) (Table 1, 90 DAA, 5 g ai/ha): 0.0% | Frequency 4/1 (50%) (Table 1, 90 DAA, 5 g ai/ha): 0.0% | Frequency 4/2 (80%) (Table 1, 90 DAA, 5 g ai/ha): 0.0% | Frequency 4/3 (90%) (Table 1, 90 DAA, 5 g ai/ha): 0.0% | Frequency 4/4 (100%) (Table 1, 90 DAA, 5 g ai/ha): 0.0% | % Referring to Scale (Table 1, 90 DAA, 10 g ai/ha): 14.3% | Frequency 1/1 (0%) (Table 1, 90 DAA, 10 g ai/ha): 7.5% | Frequency 2/1 (15%) (Table 1, 90 DAA, 10 g ai/ha): 90.0% | Frequency 3/1 (30%) (Table 1, 90 DAA, 10 g ai/ha): 2.5% | Frequency 4/1 (50%) (Table 1, 90 DAA, 10 g ai/ha): 0.0% | Frequency 4/2 (80%) (Table 1, 90 DAA, 10 g ai/ha): 0.0% | Frequency 4/3 (90%) (Table 1, 90 DAA, 10 g ai/ha): 0.0% | Frequency 4/4 (100%) (Table 1, 90 DAA, 10 g ai/ha): 0.0% | % Referring to Scale (Table 1, 90 DAA, 15 g ai/ha): 13.9% | Frequency 1/1 (0%) (Table 1, 90 DAA, 15 g ai/ha): 7.5% | Frequency 2/1 (15%) (Table 1, 90 DAA, 15 g ai/ha): 92.5% | Frequency 3/1 (30%) (Table 1, 90 DAA, 15 g ai/ha): 0.0% | Frequency 4/1 (50%) (Table 1, 90 DAA, 15 g ai/ha): 0.0% | Frequency 4/2 (80%) (Table 1, 90 DAA, 15 g ai/ha): 0.0% | Frequency 4/3 (90%) (Table 1, 90 DAA, 15 g ai/ha): 0.0% | Frequency 4/4 (100%) (Table 1, 90 DAA, 15 g ai/ha): 0.0% | % Referring to Scale (Table 1, 90 DAA, 20 g ai/ha): 13.5% | Frequency 1/1 (0%) (Table 1, 90 DAA, 20 g ai/ha): 15.0% | Frequency 2/1 (15%) (Table 1, 90 DAA, 20 g ai/ha): 80.0% | Frequency 3/1 (30%) (Table 1, 90 DAA, 20 g ai/ha): 5.0% | Frequency 4/1 (50%) (Table 1, 90 DAA, 20 g ai/ha): 0.0% | Frequency 4/2 (80%) (Table 1, 90 DAA, 20 g ai/ha): 0.0% | Frequency 4/3 (90%) (Table 1, 90 DAA, 20 g ai/ha): 0.0% | Frequency 4/4 (100%) (Table 1, 90 DAA, 20 g ai/ha): 0.0% | % Referring to Scale (Table 1, 120 DAA, 2 g ai/ha): 13.9% | Frequency 1/1 (0%) (Table 1, 120 DAA, 2 g ai/ha): 7.5% | Frequency 2/1 (15%) (Table 1, 120 DAA, 2 g ai/ha): 92.5% | Frequency 3/1 (30%) (Table 1, 120 DAA, 2 g ai/ha): 0.0% | Frequency 4/1 (50%) (Table 1, 120 DAA, 2 g ai/ha): 0.0% | Frequency 4/2 (80%) (Table 1, 120 DAA, 2 g ai/ha): 0.0% | Frequency 4/3 (90%) (Table 1, 120 DAA, 2 g ai/ha): 0.0% | Frequency 4/4 (100%) (Table 1, 120 DAA, 2 g ai/ha): 0.0% | % Referring to Scale (Table 1, 120 DAA, 5 g ai/ha): 12.8% | Frequency 1/1 (0%) (Table 1, 120 DAA, 5 g ai/ha): 15.0% | Frequency 2/1 (15%) (Table 1, 120 DAA, 5 g ai/ha): 85.0% | Frequency 3/1 (30%) (Table 1, 120 DAA, 5 g ai/ha): 0.0% | Frequency 4/1 (50%) (Table 1, 120 DAA, 5 g ai/ha): 0.0% | Frequency 4/2 (80%) (Table 1, 120 DAA, 5 g ai/ha): 0.0% | Frequency 4/3 (90%) (Table 1, 120 DAA, 5 g ai/ha): 0.0% | Frequency 4/4 (100%) (Table 1, 120 DAA, 5 g ai/ha): 0.0% | % Referring to Scale (Table 1, 120 DAA, 10 g ai/ha): 13.9% | Frequency 1/1 (0%) (Table 1, 120 DAA, 10 g ai/ha): 7.5% | Frequency 2/1 (15%) (Table 1, 120 DAA, 10 g ai/ha): 92.5% | Frequency 3/1 (30%) (Table 1, 120 DAA, 10 g ai/ha): 0.0% | Frequency 4/1 (50%) (Table 1, 120 DAA, 10 g ai/ha): 0.0% | Frequency 4/2 (80%) (Table 1, 120 DAA, 10 g ai/ha): 0.0% | Frequency 4/3 (90%) (Table 1, 120 DAA, 10 g ai/ha): 0.0% | Frequency 4/4 (100%) (Table 1, 120 DAA, 10 g ai/ha): 0.0% | % Referring to Scale (Table 1, 120 DAA, 15 g ai/ha): 13.9% | Frequency 1/1 (0%) (Table 1, 120 DAA, 15 g ai/ha): 7.5% | Frequency 2/1 (15%) (Table 1, 120 DAA, 15 g ai/ha): 92.5% | Frequency 3/1 (30%) (Table 1, 120 DAA, 15 g ai/ha): 0.0% | Frequency 4/1 (50%) (Table 1, 120 DAA, 15 g ai/ha): 0.0% | Frequency 4/2 (80%) (Table 1, 120 DAA, 15 g ai/ha): 0.0% | Frequency 4/3 (90%) (Table 1, 120 DAA, 15 g ai/ha): 0.0% | Frequency 4/4 (100%) (Table 1, 120 DAA, 15 g ai/ha): 0.0%
